Data on 29 compounds can be found in patent US20260184687A1, “DIHYDROINDENE DERIVATIVES AS MALT1 INHIBITORS” (C4X Discovery Limited, priority 2022, published 2026).

Assay [1] deals with IL-2 release from stimulated Jurkat cells. In words: Human IL-2 Release Phenotypic Assay (Assay 3). Format: cell-based. To be noted: Jurkat cells (clone E6-1), 200 ng/mL PMA + 300 ng/mL ionomycin, IL-2 by ELISA. Put shortly: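 IC50 values were fitted by 4-parameter non-linear regression to IL-2 release from Jurkat E6-1 cells. Those cells were stimulated for 48 h with PMA (200 ng/mL) plus ionomycin (300 ng/mL) after a 30-min compound pre-incubation at half-log doses in 0.5% DMSO. Cells had been plated at 50 000/well overnight at 37° C.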
In general terms: ELISA stands for enzyme-linked immunosorbent assay.

For assay [2], the target named is MALT1-GS-Ub (6-His-hMALT-1 residues 339-715 fused to ubiquitin) (Homo sapiens, UniProt Q9UDY8). The experiment in a line: biochemical.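 Note: in vitro MALT1 protease assay: enzyme preincubated with compound 30 min at room temperature, then cleavage of fluorogenic Ac-LVSR-AMC substrate (100 µM) followed by fluorescence every 15 min.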
Chain of MALT1-GS-Ub (6-His-hMALT-1 residues 339-715 fused to ubiquitin) (Q9UDY8 with tags, fused parts or gaps limits assumed): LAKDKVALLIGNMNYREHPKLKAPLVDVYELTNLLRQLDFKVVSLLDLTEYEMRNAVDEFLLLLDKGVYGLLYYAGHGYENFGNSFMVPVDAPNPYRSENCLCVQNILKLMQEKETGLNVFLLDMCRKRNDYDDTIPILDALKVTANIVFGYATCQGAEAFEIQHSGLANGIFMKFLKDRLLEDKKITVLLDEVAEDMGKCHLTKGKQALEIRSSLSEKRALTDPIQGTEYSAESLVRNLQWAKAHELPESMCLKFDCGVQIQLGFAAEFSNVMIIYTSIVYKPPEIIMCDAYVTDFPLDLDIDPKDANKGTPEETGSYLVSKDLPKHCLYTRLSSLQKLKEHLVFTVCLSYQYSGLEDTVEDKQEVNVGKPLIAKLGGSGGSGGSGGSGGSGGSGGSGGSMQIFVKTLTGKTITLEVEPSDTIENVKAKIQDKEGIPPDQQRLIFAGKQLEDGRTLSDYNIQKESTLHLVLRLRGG
The next assay concerns the target T1, FL hMALT1 enzyme (Homo sapiens, UniProt Q9UDY8).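 Note: Cell-free protease assay: enzyme preincubated with compound 30 min at room temperature, then cleavage of fluorogenic Ac-LVSR-AMC substrate (100 µM) tracked by fluorescence (ex 360/em 460 nm).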
T1 sequence (Q9UDY8 1-824): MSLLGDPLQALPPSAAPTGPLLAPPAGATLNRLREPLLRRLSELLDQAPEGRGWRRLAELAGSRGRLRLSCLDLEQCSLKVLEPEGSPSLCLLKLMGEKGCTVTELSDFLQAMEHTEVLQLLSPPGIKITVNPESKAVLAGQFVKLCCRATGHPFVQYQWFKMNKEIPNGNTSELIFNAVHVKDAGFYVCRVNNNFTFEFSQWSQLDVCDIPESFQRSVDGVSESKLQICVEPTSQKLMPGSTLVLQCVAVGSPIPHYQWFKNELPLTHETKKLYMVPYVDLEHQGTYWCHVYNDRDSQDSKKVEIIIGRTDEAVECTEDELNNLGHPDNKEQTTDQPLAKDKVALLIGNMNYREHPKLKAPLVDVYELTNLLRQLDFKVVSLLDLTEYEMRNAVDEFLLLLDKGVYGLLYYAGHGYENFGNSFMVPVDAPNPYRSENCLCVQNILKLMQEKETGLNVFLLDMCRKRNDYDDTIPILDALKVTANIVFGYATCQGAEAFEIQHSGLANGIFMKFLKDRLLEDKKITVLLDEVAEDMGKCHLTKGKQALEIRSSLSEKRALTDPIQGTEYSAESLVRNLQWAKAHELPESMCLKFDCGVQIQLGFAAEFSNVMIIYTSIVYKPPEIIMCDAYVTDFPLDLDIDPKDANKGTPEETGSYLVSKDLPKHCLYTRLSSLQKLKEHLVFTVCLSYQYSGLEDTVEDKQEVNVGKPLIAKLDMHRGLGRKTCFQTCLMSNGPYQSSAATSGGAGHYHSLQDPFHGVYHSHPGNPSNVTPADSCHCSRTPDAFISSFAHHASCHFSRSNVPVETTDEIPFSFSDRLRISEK
The experiment in a line: biochemical.
Description: MALT1 protease activity was assessed in vitro by measuring the cleavage of a fluorogenic tetrapeptide substrate.
A protein (MALT1-GS-Ub) comprising 6-His-hMALT-1 (residues 339-715), fused to ubiquitin with an 8×GGS linker, was expressed in E. coli, and purified using chitin resin to remove contaminants followed by affinity chromatography purification and size-exclusion chromatography, according to standard protocols.
Briefly, MALT1-GS-Ub (300-600 nM) was incubated with substrate (Ac-LVSR-AMC, 100 μM) in reaction buffer comprising 50 mM HEPES (pH7.0), 25 mM KCl, 0.1% (v/v) CHAPS and 1 mM TCEP.
Test compounds dissolved in DMSO were dispensed into assay plates (384-well, black, shallow ProxiPlates). 7 μl enzyme solution was added and incubated at room temperature for 30 minutes to allow compound binding to occur. 2 μl substrate solution was then added and the fluorescence (excitation 360 nm, emission 460 nm) read every 15 minutes using a suitable plate reader. Final assay DMSO concentration was 1%. […] IC50 values were calculated using GraphPad Prism using a 4-parameter non-linear regression curve fit.

For the compound `CN(C(=O)CCO)[C@@H](c1ccc(NC2Cc3ccccc3C2(C)C)cc1)C(F)(F)F` (single isomer, unassigned) [Example 34], the IC50 (in general, the concentration that gives 50% inhibition) stood at 4980 nM in assay [1] (Homo sapiens, Jurkat, 48 h); 170 nM in assay [2]; 85 nM at FL hMALT1 enzyme.

Regarding `CC(=O)NCC(=O)N(C)[C@@H](c1ccc(NC2Cc3ccccc3C2(C)C)cc1)C(F)(F)F` (single isomer, unassigned) [Example 39], the IC50 in assay [1] (48 hours) was 3590 nM; in assay [2], 240 nM; against FL hMALT1 enzyme, 170 nM.

`CN(C(=O)N1CCS(=O)(=O)CC1)[C@@H](c1ccc(NC2Cc3ccccc3C2(C)C)cc1)C(F)(F)F` (single isomer, unassigned) [Example 15]: the IC50 was determined as 3100 nM in assay [1] (48 hours), 290 nM in assay [2] and 420 nM at FL hMALT1 enzyme.

In the case of `CN(C(=O)CN1CCCC1=O)[C@@H](c1ccc(NC2Cc3ccccc3C2(C)C)cc1)C(F)(F)F` (single isomer, unassigned) [Example 45], the IC50 turned out to be 730 nM in assay [1] (Homo sapiens, Jurkat, 48 h); 240 nM in assay [2]; 180 nM against FL hMALT1 enzyme.

In the case of `CC(=O)N1CC(C(=O)N(C)[C@@H](c2ccc(NC3Cc4ccccc4C3(C)C)cc2)C(F)(F)F)C1` (single isomer, unassigned) [Example 7], the IC50 was 820 nM in assay [1] (48 hours), 190 nM in assay [2] and 68 nM against FL hMALT1 enzyme.

Take `CC(=O)N1CC(F)(C(=O)N(C)[C@@H](c2ccc(NC3Cc4ccccc4C3(C)C)cc2)C(F)(F)F)C1` (single isomer, unassigned) [Example 44]: the IC50 in assay [1] (48 hours) amounted to 770 nM; in assay [2], 180 nM; against FL hMALT1 enzyme it was 21 nM.

Regarding `CN1CC(C(=O)N(C)[C@@H](c2ccc(NC3Cc4ccccc4C3(C)C)cc2)C(F)(F)F)C1` (single isomer, unassigned) [Example 75], the 50% inhibitory concentration (IC50) in assay [1] (Homo sapiens, Jurkat, 48 h) is 820 nM; in assay [2] it was 250 nM; against FL hMALT1 enzyme it was 370 nM.

Consider `CC(=O)N1CC(OC(=O)N(C)[C@@H](c2ccc(NC3Cc4ccccc4C3(C)C)cc2)C(F)(F)F)C1` (single isomer, unassigned) [Example 57], for which the IC50 in assay [1] (48 hours) turned out to be 3690 nM; in assay [2], 160 nM; against FL hMALT1 enzyme it was 91 nM.

In the case of `CN(C(=O)CCN1CCCC1=O)[C@@H](c1ccc(NC2Cc3ccccc3C2(C)C)cc1)C(F)(F)F` (single isomer, unassigned) [Example 47], the IC50 in assay [1] (48 hours) came to 2350 nM; in assay [2], 170 nM; at FL hMALT1 enzyme it was 110 nM.

Take `CN(C(=O)C1CN(S(C)(=O)=O)C1)[C@@H](c1ccc(NC2Cc3ccccc3C2(C)C)cc1)C(F)(F)F` (single isomer, unassigned) [Example 69]: the figures for the IC50 (in assay [1] (48 hours); in assay [2]; on FL hMALT1 enzyme) were 920 nM, 280 nM and 79 nM, respectively.

Regarding `CN(C(=O)CN1CC(=O)NC1=O)[C@@H](c1ccc(NC2Cc3ccccc3C2(C)C)cc1)C(F)(F)F` (single isomer, unassigned) [Example 67], the IC50 is 5970 nM in assay [1] (48 hours), 450 nM in assay [2] and 78 nM against FL hMALT1 enzyme.

Take `CN(C(=O)c1cocn1)[C@@H](c1ccc(NC2Cc3ccccc3C2(C)C)cc1)C(F)(F)F` (single isomer, unassigned) [Example 27]: the IC50 in assay [1] (48 hours) stood at 400 nM; in assay [2], 190 nM; at FL hMALT1 enzyme it was 180 nM.

For the compound `CN(C(=O)C1CCS(=O)(=O)CC1)[C@@H](c1ccc(NC2Cc3ccccc3C2(C)C)nc1)C(F)(F)F` (single isomer, unassigned) [Example 36], the IC50 in assay [1] (48 hours) worked out at 1160 nM; in assay [2], 380 nM; against FL hMALT1 enzyme, 39 nM.

On to `CN(C(=O)C1CCS(=O)(=O)CC1)[C@@H](c1ccc(NC2Cc3ccccc3C2(C)C)cn1)C(F)(F)F` (single isomer, unassigned) [Example 78], for which the IC50 in assay [1] (48 hours) is 156 nM; in assay [2], 280 nM; on FL hMALT1 enzyme, 18 nM.

As to `CNS(=O)(=O)CCCC(=O)N(C)[C@@H](c1ccc(NC2Cc3ccccc3C2(C)C)cc1)C(F)(F)F` (single isomer, unassigned) [Example 64], the figures for the IC50 (in assay [1] (48 hours); in assay [2]; against FL hMALT1 enzyme) were 290 nM, 150 nM and 12 nM, respectively.

For `CC1(C)c2ccccc2CC1Nc1ccc([C@H](NC(=O)C2CCS(=O)(=O)CC2)C(F)(F)F)cc1` (single isomer, unassigned) [Example 82], the IC50 in assay [1] (48 hours) was determined as 2990 nM; in assay [2], 470 nM; against FL hMALT1 enzyme, 460 nM.

Take `CC(=O)N1CC(OC(=O)N(C)[C@@H](c2ccc(NC3Cc4ccccc4C3(C)C)cc2)C(F)(F)F)C1` (single isomer, unassigned) [Example 58]: the IC50 in assay [1] (48 hours) was 1020 nM; in assay [2], 190 nM; at FL hMALT1 enzyme it was 38 nM.

Consider `COCCC(=O)N(C)[C@@H](c1ccc(NC2Cc3ccccc3C2(C)C)cc1)C(F)(F)F` (single isomer, unassigned) [Example 32], for which the results for the IC50 (in assay [1] (48 hours); in assay [2]; on FL hMALT1 enzyme) were 5680 nM, 200 nM and 130 nM, respectively.

Consider `CN(C(=O)C1CCS(=O)(=O)CC1)[C@@H](c1ccc(NC2Cc3ccc(Cl)cc3C2)cc1)C(F)(F)F` (single isomer, unassigned) [Example 56], for which the results for the IC50 (in assay [1] (48 hours); in assay [2]; against FL hMALT1 enzyme) were 93 nM, 150 nM and 14 nM, respectively.

Consider `CC(=O)N1CC(C)(C(=O)N(C)[C@@H](c2ccc(NC3Cc4ccccc4C3(C)C)cc2)C(F)(F)F)C1` (single isomer, unassigned) [Example 42], for which the IC50 in assay [1] (48 hours) was 1600 nM; in assay [2], 160 nM; on FL hMALT1 enzyme it was 35 nM.

Turning to `CC1c2ccccc2CC1Nc1ccc(C(N(C)C(=O)C2CCS(=O)(=O)CC2)C(F)(F)F)cc1` (mixture of isomers) [Example 8, N-Methyl-N—((S)-2,2,2-trifluoro-1-(4-(((1,2-cis)-1-methyl-2,3-dihydro-1H-inden-2-yl)amino)phenyl)ethyl)tetrahydro-2H-thiopyran-4-carboxamide 1,1-dioxide], the IC50 is 150 nM in assay [1] (Homo sapiens, Jurkat, 48 h); 200 nM in assay [2]; 39 nM against FL hMALT1 enzyme.

Turning to `CN(C(=O)c1cnco1)[C@@H](c1ccc(NC2Cc3ccccc3C2(C)C)cc1)C(F)(F)F` (single isomer, unassigned) [Example 5], the IC50 in assay [1] (48 hours) amounted to 2250 nM; in assay [2], 140 nM; on FL hMALT1 enzyme, 250 nM.

For the compound `CN(C(=O)C1CCNCC1)[C@@H](c1ccc(NC2Cc3ccccc3C2)cc1)C(F)(F)F` (single isomer, unassigned) [Example 70], the IC50 in assay [1] (Homo sapiens, Jurkat, 48 h) was found to be 3500 nM; in assay [2], 430 nM; against FL hMALT1 enzyme, 810 nM.

`CN(C(=O)C1CNC1)C(c1ccc(NC2Cc3ccccc3C2(C)C)cn1)C(F)(F)F` (single isomer, unassigned) [Example 85, N-(1-(5-((1,1-Dimethyl-2,3-dihydro-1H-inden-2-yl)amino)pyridin-2-yl)-2,2,2-trifluoroethyl)-N-methylazetidine-3-carboxamide]: the IC50 was found to be 1940 nM in assay [1] (48 hours), 610 nM in assay [2] and 620 nM at FL hMALT1 enzyme.

Consider `CN1CC(C(=O)N(C)[C@@H](c2ccc(NC3Cc4ccccc4C3(C)C)cc2)C(F)(F)F)C1` (single isomer, unassigned) [Example 76], for which the IC50 stood at 500 nM in assay [1] (48 hours), 220 nM in assay [2] and 36 nM on FL hMALT1 enzyme.

As to `CC(=O)N1CC(C)(C(=O)N(C)[C@@H](c2ccc(NC3Cc4ccccc4C3(C)C)cc2)C(F)(F)F)C1` (single isomer, unassigned) [Example 41], the IC50 in assay [1] (Homo sapiens, Jurkat, 48 h) is 1040 nM; in assay [2] it was 220 nM; against FL hMALT1 enzyme it was 19 nM.

With `CN(C(=O)N1CCOCC1)[C@@H](c1ccc(N[C@H]2Cc3ccccc3C2(C)C)cc1)C(F)(F)F` (single isomer, unassigned) [Example 12], the IC50 is 490 nM in assay [1] (Homo sapiens, Jurkat, 48 h); 180 nM in assay [2]; 290 nM at FL hMALT1 enzyme.

As to `CN(C(=O)C1CCOCC1)[C@@H](c1ccc(NC2Cc3ccccc3C2(C)C)cc1)C(F)(F)F` (single isomer, unassigned) [Example 18], the results for the IC50 (in assay [1] (48 hours); in assay [2]; at FL hMALT1 enzyme) were 520 nM, 330 nM and 120 nM, respectively.

In the case of `CN(C(=O)C1CCS(=O)(=O)CC1)[C@@H](c1ccc(NC2Cc3ccccc3C2)cn1)C(F)(F)F` (single isomer, unassigned) [Example 71], the IC50 in assay [1] (Homo sapiens, Jurkat, 48 h) was found to be 2620 nM; in assay [2], 330 nM.
